In US20260028365A1 (BIOGEN MA INC., priority 2022, published 2026) one finds IC50 data, which are given here for 29 compounds.

Some results are limits rather than exact numbers.

For one experiment, the target named is Tyk2 (Homo sapiens (Human), UniProt P29597). Briefly: pSTAT4 Cell Assay (MSD, NK92 cells). Type of experiment: cell-based.
Sequence of Tyk2 (P29597 whole entry): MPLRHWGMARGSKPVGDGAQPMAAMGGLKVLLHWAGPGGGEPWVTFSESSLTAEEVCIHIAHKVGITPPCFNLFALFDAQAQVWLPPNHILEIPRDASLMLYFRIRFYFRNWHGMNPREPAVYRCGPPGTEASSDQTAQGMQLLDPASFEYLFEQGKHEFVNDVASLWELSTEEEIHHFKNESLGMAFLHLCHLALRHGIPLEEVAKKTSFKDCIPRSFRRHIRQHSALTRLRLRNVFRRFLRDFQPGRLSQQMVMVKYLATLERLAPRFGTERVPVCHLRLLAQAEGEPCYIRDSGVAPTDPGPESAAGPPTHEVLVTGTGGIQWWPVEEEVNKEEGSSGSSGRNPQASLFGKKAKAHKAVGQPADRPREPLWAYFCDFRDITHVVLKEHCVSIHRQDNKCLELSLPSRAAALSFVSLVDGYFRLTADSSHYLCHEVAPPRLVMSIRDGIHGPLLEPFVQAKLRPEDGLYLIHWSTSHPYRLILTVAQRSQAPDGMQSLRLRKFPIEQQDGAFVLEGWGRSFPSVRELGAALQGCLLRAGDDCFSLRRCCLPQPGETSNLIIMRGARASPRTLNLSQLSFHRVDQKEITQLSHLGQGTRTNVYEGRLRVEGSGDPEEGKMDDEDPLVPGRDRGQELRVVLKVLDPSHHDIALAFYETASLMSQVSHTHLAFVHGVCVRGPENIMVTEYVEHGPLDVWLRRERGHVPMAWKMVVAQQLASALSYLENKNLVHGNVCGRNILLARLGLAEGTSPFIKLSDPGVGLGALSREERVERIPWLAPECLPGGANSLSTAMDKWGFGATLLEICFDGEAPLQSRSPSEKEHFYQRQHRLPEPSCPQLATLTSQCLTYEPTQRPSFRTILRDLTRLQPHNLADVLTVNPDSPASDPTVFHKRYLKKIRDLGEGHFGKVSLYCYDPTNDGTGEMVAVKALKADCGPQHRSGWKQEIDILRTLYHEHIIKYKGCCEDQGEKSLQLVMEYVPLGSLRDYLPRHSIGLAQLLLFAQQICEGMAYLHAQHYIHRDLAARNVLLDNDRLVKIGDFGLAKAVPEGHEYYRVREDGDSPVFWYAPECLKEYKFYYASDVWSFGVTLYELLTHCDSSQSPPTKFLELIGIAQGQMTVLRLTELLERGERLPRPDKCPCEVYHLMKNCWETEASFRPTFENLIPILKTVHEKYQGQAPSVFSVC
Conditions: not given
The procedure: The inhibitory potency of compounds of the disclosure against the Tyk2 kinase activity on STAT4 was evaluated using an MSD-platform plate-based assay format. NK92 cells natively expressing STAT4 and Tyk2 were serum-starved to reduce background phosphorylation levels, then cells were treated compounds for 1 hr with a 10-point four-fold dilution series starting at 10 μM. Cells were then stimulated with 30 ng/mL […] for 15 minutes. […] The data were normalized and the percent activity versus log concentration of compound were fitted with a 4-parameter logistic model to generate to generate IC50 curves.
Take `CCc1cc(Nc2cc(NC(C)=O)ncc2-c2cnc(CN3CCOCC3)cn2)nc(C(C)(F)F)n1` [Example 899, N-(4-((2-(1,1-difluoroethyl)-6-ethylpyrimidin-4-yl)amino)-5-(5-(morpholinomethyl)pyrazin-2-yl)pyridin-2-yl)acetamide]: the IC50 (as a rule, the concentration that gives 50% inhibition) was 0.01 to 0.1 µM.
On the same count and under the same terms, then `CCc1cc(Nc2cc(NC(C)=O)ncc2-c2nccc(CN3C[C@H]4C[C@@H]3CO4)n2)nc(C(C)(F)F)n1` [Example 907, N-(5-(4-(((1R,4R)-2-oxa-5-azabicyclo[2.2.1]heptan-5-yl)methyl)pyrimidin-2-yl)-4-((2-(1,1-difluoroethyl)-6-ethylpyrimidin-4-yl)amino)pyridin-2-yl)acetamide], with 0.01 to 0.1 µM; and `CCc1cc(Nc2cc(NC(C)=O)ncc2-c2ccnc(CN3C[C@H]4C[C@@H](C3)O4)n2)nc(C(C)(F)F)n1` [Example 913, N-(5-(2-(((1R,5S)-6-oxa-3-azabicyclo[3.1.1]heptan-3-yl)methyl)pyrimidin-4-yl)-4-((2-(1,1-difluoroethyl)-6-ethylpyrimidin-4-yl)amino)pyridin-2-yl)acetamide], with 0.01 to 0.1 µM; and `CCc1cc(Nc2cc(NC(C)=O)ncc2-c2ncc(CN3CCCC3)cn2)nc(C(C)(F)F)n1` [Example 903, N-(4-((2-(1,1-difluoroethyl)-6-ethylpyrimidin-4-yl)amino)-5-(5-(pyrrolidin-1-ylmethyl)pyrimidin-2-yl)pyridin-2-yl)acetamide], with 0.1 to 1 µM.
On the same count and under the same terms, with `CCc1cc(Nc2cc(NC(C)=O)ncc2-c2ccc(CN3C[C@@H]4C[C@H]3CO4)cn2)nc(C(C)(F)F)n1` [Example 902, N-(5-(((1S,4S)-2-oxa-5-azabicyclo[2.2.1]heptan-5-yl)methyl)-4′-((2-(1,1-difluoroethyl)-6-ethylpyrimidin-4-yl)amino)-[2,3′-bipyridin]-6′-yl)acetamide] the figure was at most 0.01 µM; with `CC(=O)Nc1cc(Nc2cc(C)nc(C(C)(F)F)n2)c(-c2ccn(C(F)F)n2)cn1` [Example 811, N-(4-((2-(1,1-difluoroethyl)-6-methylpyrimidin-4-yl)amino)-5-(1-(difluoromethyl)-1H-pyrazol-3-yl)pyridin-2-yl)acetamide], 0.01 to 0.1 µM.

Staying with this experiment, now noted: MSD.
Turning to `CCC1(COc2cnc(NC(C)=O)cc2Nc2cc(C)nc(C(C)(F)F)n2)COC1` [Example 109, N-(4-((2-(1,1-difluoroethyl)-6-methylpyrimidin-4-yl)amino)-5-((3-ethyloxetan-3-yl)methoxy)pyridin-2-yl)acetamide], the IC50 fell in the range of 0.01 to 0.1 µM.
Still for that read-out and setting: then `CC(=O)Nc1cc(Nc2cc(C)nc(C(C)(F)F)n2)c(-c2cc3n(n2)CCNC3=O)cn1` [Example 223, N-(4-((2-(1,1-difluoroethyl)-6-methylpyrimidin-4-yl)amino)-5-(4-oxo-4,5,6,7-tetrahydropyrazolo[1,5-a]pyrazin-2-yl)pyridin-2-yl)acetamide], with 0.01 to 0.1 µM; and `CC(=O)Nc1cc(Nc2ccnc(C(C)(F)F)n2)c(-c2cccc(C(C)(C)C#N)n2)cn1` [Example 653, N-(6-(2-cyanopropan-2-yl)-4′-((2-(1,1-difluoroethyl)pyrimidin-4-yl)amino)-[2,3′-bipyridin]-6′-yl)acetamide], with 0.01 to 0.1 µM.
For `CNC(=O)Nc1cc(Nc2cc(C)nc(C(C)(F)F)n2)c(-c2ccc(F)cn2)cn1` [Example 290, 1-(4′-((2-(1,1-difluoroethyl)-6-methylpyrimidin-4-yl)amino)-5-fluoro-[2,3′-bipyridin]-6′-yl)-3-methylurea], the IC50 is at most 0.01 µM.
On the same count and under the same terms, with `COC(C)CCOc1cnc(NC(C)=O)cc1Nc1cc(C)nc(C(C)(F)F)n1` (centres unmarked) [Example 137, N-(4-((2-(1,1-difluoroethyl)-6-methylpyrimidin-4-yl)amino)-5-(3-methoxybutoxy)pyridin-2-yl)acetamide] the figure was 0.01 to 0.1 µM; with `CC(=O)Nc1cc(Nc2cc(C)nc(C34COC(C3)C4)n2)c(-c2cc3n(n2)CCN(C)C3)cn1` [Example 141, N-(4-((2-(2-oxabicyclo[2.1.1]hexan-4-yl)-6-methylpyrimidin-4-yl)amino)-5-(5-methyl-4,5,6,7-tetrahydropyrazolo[1,5-a]pyrazin-2-yl)pyridin-2-yl)acetamide], at most 0.01 µM.
Still for that read-out and setting: then `CC(=O)Nc1cc(Nc2cc(C)nc(C(C)(F)F)n2)c(OCc2cnco2)cn1` [Example 122, N-(4-((2-(1,1-difluoroethyl)-6-methylpyrimidin-4-yl)amino)-5-(oxazol-5-ylmethoxy)pyridin-2-yl)acetamide], with at most 0.01 µM; and `CC(=O)Nc1cc(Nc2cc(C)nc(C(C)(F)F)n2)c(-c2cc3n(n2)C(O)CN(C)C3)cn1` (centres unmarked) [Example 224, N-(4-((2-(1,1-difluoroethyl)-6-methylpyrimidin-4-yl)amino)-5-(7-hydroxy-5-methyl-4,5,6,7-tetrahydropyrazolo[1,5-a]pyrazin-2-yl)pyridin-2-yl)acetamide], with at most 0.01 µM.
Same read-out and setting: then `CC(=O)Nc1cc(Nc2cc(C)nc(C(C)(F)F)n2)c(OCc2cc(C)cc(C)n2)cn1` [Example 123, N-(4-((2-(1,1-difluoroethyl)-6-methylpyrimidin-4-yl)amino)-5-((4,6-dimethylpyridin-2-yl)methoxy)pyridin-2-yl)acetamide], with 0.01 to 0.1 µM.
Compound `CC(=O)Nc1cc(Nc2cc(C)nc(C(C)(F)F)n2)c(-c2cc(N(C)C)cnn2)cn1` [Example 253, N-(4-((2-(1,1-difluoroethyl)-6-methylpyrimidin-4-yl)amino)-5-(5-(dimethylamino)pyridazin-3-yl)pyridin-2-yl)acetamide] had an IC50 of at least 1 µM.
`CCCCOc1cnc(NC(C)=O)cc1Nc1cc(C)nc(C(C)(F)F)n1` [Example 105, N-(5-butoxy-4-((2-(1,1-difluoroethyl)-6-methylpyrimidin-4-yl)amino)pyridin-2-yl)acetamide] gave an IC50 of at most 0.01 µM.
On the same count and under the same terms, then `CC(=O)Nc1cc(Nc2ccnc(C(C)(F)F)n2)c(-c2nc3c(s2)CN(C)C3)cn1` [Example 284, N-(4-((2-(1,1-difluoroethyl)pyrimidin-4-yl)amino)-5-(5-methyl-5,6-dihydro-4H-pyrrolo[3,4-d]thiazol-2-yl)pyridin-2-yl)acetamide], with 0.01 to 0.1 µM; and `CC(=O)Nc1cc(Nc2cc(C)nc(C(C)(F)F)n2)c(-c2ccc3c(n2)CCOC3)cn1` [Example 679, N-(4-((2-(1,1-difluoroethyl)-6-methylpyrimidin-4-yl)amino)-5-(7,8-dihydrO5H-pyrano[4,3-b]pyridin-2-yl)pyridin-2-yl)acetamide], with at most 0.01 µM.
The same measure, in the same setting: with `CC(=O)Nc1cc(Nc2ccnc(C(C)(F)F)n2)c(OC(F)F)cn1` [Example 6, N-(4-((2-(1,1-difluoroethyl)pyrimidin-4-yl)amino)-5-(difluoromethoxy)pyridin-2-yl)acetamide] the figure was at least 1 µM; with `CC(=O)Nc1cc(Nc2cc(C)nc(C(C)(F)F)n2)c(OCc2nnc(C)s2)cn1` [Example 118, N-(4-((2-(1,1-difluoroethyl)-6-methylpyrimidin-4-yl)amino)-5-((5-methyl-1,3,4-thiadiazol-2-yl)methoxy)pyridin-2-yl)acetamide], 0.01 to 0.1 µM; with `COc1cccc(COc2cnc(NC(C)=O)cc2Nc2cc(C)nc(C(C)(F)F)n2)n1` [Example 132, N-(4-((2-(1,1-difluoroethyl)-6-methylpyrimidin-4-yl)amino)-5-((6-methoxypyridin-2-y1)methoxy)pyridin-2-yl)acetamide], 0.01 to 0.1 µM.
`CC(=O)Nc1cc(Nc2cc(C(C)C)nc(C(C)(F)F)n2)c(-c2ccn(C)n2)cn1` [Example 205, N-(4-((2-(1,1-difluoroethyl)-6-isopropylpyrimidin-4-yl)amino)-5-(1-methyl-1H-pyrazol-3-yl)pyridin-2-yl)acetamide] yielded a half-maximal inhibitory concentration (IC50) of at least 1 µM.
Take `CC(=O)Nc1cc(Nc2cc(C)nc(C(C)(F)F)n2)c(OCCC(F)F)cn1` [Example 104, N-(4-((2-(1,1-difluoroethyl)-6-methylpyrimidin-4-yl)amino)-5-(3,3-difluoropropoxy)pyridin-2-yl)acetamide]: the IC50 was in the range of 0.01 to 0.1 µM.
Still for that read-out and setting: then `CC(=O)Nc1cc(Nc2cc(C)nc(C(C)(F)F)n2)c(-c2ccc([C@H]3COCCN3C)cn2)cn1` (single isomer, unassigned) [Example 645, (S)-N-(4′-((2-(1,1-difluoroethyl)-6-methylpyrimidin-4-yl)amino)-5-(4-methylmorpholin-3-yl)-[2,3′-bipyridin]-6′-yl)acetamide or (R)-N-(4′-((2-(1,1-difluoroethyl)-6-methylpyrimidin-4-yl)amino)-5-(4-methylmorpholin-3-yl)-[2,3′-bipyridin]-6′-yl)acetamide], with at most 0.01 µM; and `COc1nc(-c2cnc(NC(C)=O)cc2Nc2cc(C)nc(C(C)(F)F)n2)ncc1F` [Example 659, N-(4-((2-(1,1-difluoroethyl)-6-methylpyrimidin-4-yl)amino)-5-(5-fluorO4-methoxypyrimidin-2-yl)pyridin-2-yl)acetamide], with at least 1 µM.
On the same count and under the same terms, then `CCc1cc(Nc2cc(NC(C)=O)ncc2-c2cc3n(n2)CCN(C)C3)nc(C(C)(F)F)n1` [Example 721, N-(4-((2-(1,1-difluoroethyl)-6-ethylpyrimidin-4-yl)amino)-5-(5-methyl-4,5,6,7-tetrahydropyrazolo[1,5-a]pyrazin-2-yl)pyridin-2-yl)acetamide], with at most 0.01 µM.
Still for that read-out and setting: then `CC(=O)Nc1cc(Nc2cc(C)nc(C(C)(F)F)n2)c(OCC2CCCOC2)cn1` (centres unmarked) [Example 136, N-(4-((2-(1,1-difluoroethyl)-6-methylpyrimidin-4-yl)amino)-5-((tetrahydro-2H-pyran-3-yl)methoxy)pyridin-2-yl)acetamide], with at most 0.01 µM; and `CO[C@H]1C[C@H](Oc2cc(Nc3cc(NC(C)=O)ncc3-c3ccn(C)n3)nc(C(C)(F)F)c2)C1` [Example 148, N-(4-((6-(1,1-difluoroethyl)-4-((1r,3r)-3-methoxycyclobutoxy)pyridin-2-yl)amino)-5-(1-methyl-1H-pyrazol-3-yl)pyridin-2-yl)acetamide], with at most 0.01 µM.
